Source: patent publication US10647680B2, “Urea compound, preparation method therefor and medical use thereof” (Ancureall Pharmaceutical (Shanghai) Co., Ltd., priority 2016, dated 2020)

What was measured:
[1] = test system: NCI-H2170 (HER2/ErbB2 amp); test: In vitro growth inhibition (GI50), NCI-H2170; assay type: cell-based; conditions: Homo sapiens
Excerpt: Tumor cell line is an effective cell model for studying the inhibition of tumor cell growth or proliferation in vitro. In the present invention, a representative tumor cell line was selected to determine the cell growth inhibition activity of the present compound. All cell lines used were from ATCC, DSMZ, and the Cell Bank of the Chinese Academy of Sciences. Cell culture conditions and methods were in accordance with the requirements of each cell line. Cells were subcultured in vitro for no more than 3 passages each time, and as required, single-clone purification and identification of cell lines could be carried out.
The cell culture media used were RPMI1640 (Gibco), MEM (Gibco), McCOY'S5A (Gibco), and IMDM (Gibco). The complete medium was prepared by supplement with 5˜20% fetal calf serum (Gibco), 1% double-antibiotics (10000 units/mL penicillin and 10000 units/mL), 2 mM glutamine or 1 mM sodium pyruvate, respectively.
Human gastric cancer cell line NCI-N87 (HER2/ErbB2 amp, ATCC), human breast cancer cell line HCC1954 (HER2/ErbB2 amp, ATCC) and ZR-75-30 (HER2/ErbB2 amp, ATCC), human adenocarcinoma cell line AU565 (HER2/ErbB2 amp, ATCC), human lung squamous cell carcinoma cell line NCI-H2170 (HER2/ErbB2 amp, ATCC), human bronchioalveolar adenocarcinoma cell line NCI-H1781 (HER2/ErbB2 Ins G776V,C mutant type, ATCC) were cultured with a 1×RPMI1640 complete medium (10% FBS), respectively. Human lung adenocarcinoma cell line Calu-3 (HER2/ErbB2 amp, ATCC) was cultured with 1×MEM, 10% FBS, 1% double antibody, 1% NEAA (Gibco), 2 mM glutamine and 1 mM sodium pyruvate. The human breast cancer cell line SK-BR-3 (HER2/ErbB2 amp, ATCC) was cultured with a McCOY'S5A complete medium (10% FBS).
Adherent cells were digested with 0.25% pancreatin-EDTA (Gibco). The suspension cells were collected by centrifugation. The supernatant was discarded and the cell pellet was resuspended and counted. Different cell concentrations (5˜10×10^4 cells/mL) were prepared according to the growth cycle of each cell line and then seeded on a 96-well plate (Corning), 100 μL/well. The cells were incubated overnight at 37° C., 5% CO2. The compounds were added to the cells on the second day with 2 wells in parallel. The final concentration of organic solvent shall not exceed 1%. The cells were continually incubated for 3 to 5 days, and then subjected to MTT assay.
The compound of the present invention and the control compound were dissolved in DMSO (Sigma) respectively, with the purity of more than 98%. The compound was stored in a concentration of 10 mM at −20° C. and diluted to 2- or 10-fold series prior to use.
Dojindo CCK8 reagent kit was used as MTT assay. THERMO […] FC meter was used as microplate reader.
For adherent cells, culture medium was removed and immediately replaced with the fresh prepared medium which contains 10% CCK8 reagent (100 μL/well). For the suspension cells, CCK8 was directly added to 10% of the final concentration. The cells were continually incubated for 1˜4 h. When a dark yellow color could be observed in the solvent control wells, the absorbance value at OD450 nm was measured and the cell growth rate was calculated according to the following formula: Cell Growth Rate (%)=100*(T−T0)/(C−T0) T=optical density of drug treatment cell well—optical density of blank control well; T0=optical density of cell well before drug treatment—optical density of blank control well; C=optical density of cell well of solvent control group—optical density of blank control well. The concentration value of 50% inhibition of cell growth (GI50) was calculated according to the drug concentration and cell growth rate curve. The experiment was independently repeated 1˜3 times, and subject to biological statistical analysis. 4. Experimental Results
Tumor cell growth inhibition test was performed by selecting representative compounds (compounds 4, 11, 12, 16, 27, 68, 71, 77, 79, 89 and 116 of the present invention). […]

[2] = test system: RAMOS (positive expression of Brutons tyrosine protein kinase); test: In vitro growth inhibition (GI50), RAMOS; assay type: cell-based; conditions: Homo sapiens, Cell lines of leukemia, read-out: GI 50 Ramos BTK

Compound | GI50 [1] [nM] | GI50 [2] [nM]
CC(C)(C)c1cc(NC(=O)Nc2ccc(-n3cnc4cc(OCCN5CCOCC5)ccc43)cc2)no1 [Compound 16, 1-(5-tert-butyl-isoxazol-3-yl)-3-{4-[5-(2-morpholin-4-yl-ethoxyl)-benzimidazol-1-yl]-phenyl}-urea] | > 2500 | > 1000
CC(C)(C)c1cc(N)n(C(=O)Nc2ccc(-n3cnc4ccccc43)cc2)n1 [Compound 116, 5-amino-3-tert-butyl-pyrazol-1-carboxylic acid (4-benzimidazol-1-yl-phenyl)-amide] | > 2500 | > 1000
CC(C)(C)c1cc(NC(=O)Nc2ccc(-n3cnc4cc(OCCO)ccc43)cc2)[nH]n1 [Compound 79, 1-(5-tert-butyl-2H-pyrazol-3-yl)-3-{4-[5-(2-hydroxy-ethoxyl)-benzimidazol-1-yl]-phenyl]urea] | > 2500 | > 1000
CC(C)(C)c1cc(NC(=O)Nc2ccc(-n3cnc4cc(OCCN5CCOCC5)ccc43)cc2)[nH]n1 [Compound 89, 1-(5-tert-butyl-2H-pyrazol-3-yl)-3-{4-[5-(2-morpholin-4-yl-ethoxyl)-benzimidazol-1-yl]-phenyl}-urea] | > 2500 | > 1000
COCCOc1ccc2c(c1)ncn2-c1ccc(NC(=O)Nc2cc(C(C)(C)C)n[nH]2)cc1 [Compound 77, 1-(5-tert-butyl-2H-pyrazol-3-yl)-3-{4-[5-(2-methoxyl-ethoxyl)-benzimidazol-1-yl]-phenyl}-urea] | > 2500 | > 1000
COc1ccc2c(c1)ncn2-c1ccc(NC(=O)Nc2cc(C(C)(C)C)n[nH]2)cc1 [Compound 71, 1-(5-tert-butyl-2H-pyrazol-3-yl)-3-[4-(5-methoxyl-benzimidazol-1-yl)-phenyl]-urea] | > 2500 | > 1000
CC(C)(C)c1cc(NC(=O)Nc2ccc(-n3cnc4ccccc43)cc2)[nH]n1 [Compound 68, 1-(4-benzimidazol-1-yl-phenyl)-3-(5-tert-butyl-2H-pyrazol-3-yl)-urea] | > 2500 | > 1000
CC(C)(C)c1cc(NC(=O)Nc2ccc(-n3cnc4ccc(OCCN5CCOCC5)cc43)cc2)no1 [Compound 27, 1-(5-tert-butyl-isoxazol-3-yl)-3-{4-[6-(2morpholin-4-yl-ethoxyl)-benzimidazol-1-yl]-phenyl}-urea] | > 2500 | > 1000
CC(C)(C)c1cc(NC(=O)Nc2ccc(-n3cnc4cc(O)ccc43)cc2)no1 [Compound 4, 1-(5-tert-butyl-isoxazol-3-yl)-3-[4-(5-hydroxy-benzimidazol-1-yl)-phenyl]-urea] | > 2500 | 100 to 1000
CC(C)(C)c1cc(NC(=O)Nc2ccc(-n3cnc4cc(OCCO)ccc43)cc2)no1 [Compound 11, 1-(5-tert-butyl-isoxazol-3-yl)-3-{4-[5-(2-hydroxy-ethoxyl)-benzimidazol-1-yl]-phenyl]-urea] | > 2500 | > 1000
